{
  "source": "patent US6399581B1",
  "about": "“Compound possessing potent thrombin receptor antagonist activity” (Harbor Branch Oceanographic Institution, Inc., priority 1999, dated 2002)",
  "key": {"rat mast cells": {"test_system": "rat mast cells", "settings": "cited from earlier work"}, "C5 a-receptor": {"target": "T1, C5 a-receptor (Homo sapiens, UniProt P21730)", "T1 sequence (P21730 1-350)": "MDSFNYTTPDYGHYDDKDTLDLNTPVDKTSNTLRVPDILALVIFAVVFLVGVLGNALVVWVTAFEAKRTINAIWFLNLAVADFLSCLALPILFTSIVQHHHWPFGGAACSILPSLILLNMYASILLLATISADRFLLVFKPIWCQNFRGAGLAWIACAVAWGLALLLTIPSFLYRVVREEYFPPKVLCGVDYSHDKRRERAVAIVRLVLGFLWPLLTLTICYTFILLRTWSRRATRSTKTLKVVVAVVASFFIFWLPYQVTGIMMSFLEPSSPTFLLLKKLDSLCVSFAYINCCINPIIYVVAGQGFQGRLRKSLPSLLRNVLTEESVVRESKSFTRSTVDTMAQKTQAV", "settings": "cited from earlier work"}, "[1]": {"target": "T2, protease-activated receptor 1 (PAR-1) (Homo sapiens, UniProt P25116)", "T2 construct": "Blood was withdrawn from the antecubal vein of healthy human volunteers; endogenous in cells; host or cells: washed platelets from blood of healthy human volunteers", "T2 sequence (P25116 22-425)": "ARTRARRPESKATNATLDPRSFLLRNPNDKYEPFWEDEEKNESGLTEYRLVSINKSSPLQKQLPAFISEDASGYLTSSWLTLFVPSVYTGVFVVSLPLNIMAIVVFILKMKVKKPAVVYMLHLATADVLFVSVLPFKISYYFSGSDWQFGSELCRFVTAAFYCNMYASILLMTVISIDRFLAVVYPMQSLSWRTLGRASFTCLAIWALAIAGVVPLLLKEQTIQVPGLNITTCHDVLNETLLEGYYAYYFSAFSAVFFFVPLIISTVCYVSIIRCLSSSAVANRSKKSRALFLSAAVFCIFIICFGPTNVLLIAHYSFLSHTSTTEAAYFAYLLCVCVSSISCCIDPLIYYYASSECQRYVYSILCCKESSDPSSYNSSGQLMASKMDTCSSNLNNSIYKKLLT", "assay": "SFLLRN-induced platelet aggregation, human washed platelets", "format": "cell-based", "procedure": "(§1) Platelet aggregation assay: Blood was withdrawn from the antecubal vein of healthy human volunteers who had taken no medication for 14 days. The blood (9 volumes) was anti-coagulated with 1 volume of 3.8% w/v tri-sodium citrate, to give a final citrate concentration of 12.9 mM. To each 20 ml volume of anti-coagulated blood 50 μl of a 10 μg/ml prostacyclin (PGI2) solution was added to prevent activation during the platelet isolation process. The prostacyclin-treated blood was then centrifuged (1280×g; 4 minutes) to yield platelet-rich plasma (PRP). […] The supernatant (platelet-poor plasma) was discarded and the platelets resuspended in a Hepes buffer (NaCl (8 g/l); NaHCO3 (1 g/l); KCl (0.2 g/l); KH2 PO4 (0.1 g/l); Hepes (1.2 g/l); D-Glucose (1 g/l) adjusted to a pH of 6.4. The resultant platelet suspension was again centrifuged (1280×g; 8 minutes) to pellet the platelets. The supernatant was discarded and the platelets resuspended in a Hepes buffer of the same composition but adjusted to a pH of 7.4. The platelet count was then adjusted to 300,000 platelets/μl, following quantification on a Sysmex K1000 Haematological analyser and CaCl2 (1 mM) and MgCl2 (0.5 mM) were added back. […]\n(§2) Platelet aggregation, in a human washed platelet preparation, was quantified using an optical aggregometer. […]"}, "thrombin receptor": {"target": "T3, thrombin receptor (Homo sapiens, UniProt P25116)", "T3 construct": "HeLa cells, which constitutively express the thrombin receptor; endogenous in cells; host or cells: HeLa cells", "T3 sequence (P25116 22-425)": "T2 sequence (P25116 22-425)", "assay": "Thrombin receptor antagonist assay using FLIPR: thrombin-induced intracellular calcium mobilization in HeLa cells", "format": "cell-based", "settings": "fluo-3, thrombin 0.3 U/ml", "procedure": "Tests were conducted of inhibition of thrombin-induced calcium mobilization in HeLa cells (see FIG. 2). […] The HPLC profiles of the extracts were very similar, and in both cases the biological activity resided in the same chromatographic fractions indicating common active principles. One of these was fully deconvoluted, and several active components were isolated. These were all glycosides of penasterol though differing in the number of sugar residues attached at the C-1 position.\nThrombin receptor antagonist assay using FLIPR (fluorescence)imaging plate reader: HeLa cells were suspended in complete media and the cell density measured then adjusted to give a final cell density of 2.0×10^5/ml. 100 μl of cell suspension was dispensed into 96-well microtitre plates using a Multipdrop 96/384 well plate dispenser. […] Fluorescence output was read every 1 second for the first 20 seconds then every 5 seconds for a further 30 seconds.\nAn assay was conducted based upon measurement of thrombin-inducedintracellular calcium mobilization in HeLa cells, which constitutively express the thrombin receptor. Intracellular calcium flux was measured using the fluorescent dye fluo-3' which in the absence of calcium ions fluoresces only weakly, but in the presence of calcium increases fluorescence by approximately 100-fold. Fluorescence was measured using a fluorescence imaging plate reader (FLIPR; see FIG. 2)."}, "[2]": {"test_system": "liver hepatocyte (HepG2) cells", "assay": "Toxicity against liver hepatocyte (HepG2) cells", "format": "cell-based"}, "[3]": {"target": "T2, protease-activated receptor 1 (PAR-1)", "assay": "Thrombin-induced platelet aggregation, human washed platelets", "format": "cell-based", "settings": "thrombin 0.1 U/ml", "procedure": "as §1, §2"}, "[4]": {"test_system": "human washed platelet preparation", "assay": "U-46619-induced platelet aggregation, human washed platelets", "format": "cell-based", "settings": "U-46619 3 μM", "procedure": "as §1, §2"}},
  "data": [
    {"molecule": "CC(C)=CCC[C@@H](C)[C@H]1CC[C@@]2(C(=O)O)C3=C(CC[C@]12C)[C@@]1(C)CCC(=O)C(C)(C)[C@@H]1CC3", "note": "[penasterone]", "values": [
      {"measurement": "Inhibition of IgE-dependent histamine release", "setting": "rat mast cells", "value": "inhibit IgE-dependent histamine release"}
    ]},
    {"molecule": "CC(=O)O[C@H]1CC[C@]2(C)C3=C(CC[C@H]2C1(C)C)[C@]1(C(=O)O)CC[C@H]([C@H](C)CCC=C(C)C)[C@@]1(C)CC3", "note": "[acetylpenasterol]", "values": [
      {"measurement": "Inhibition of IgE-dependent histamine release", "setting": "rat mast cells", "value": "inhibit IgE-dependent histamine release"}
    ]},
    {"molecule": "Eryloside E", "values": [
      {"measurement": "Antagonism of C5a-receptor binding", "setting": "C5 a-receptor", "value": "antagonist of C5 a-receptorbinding"}
    ]},
    {"molecule": "Penasterol", "values": [
      {"measurement": "Inhibition of IgE-dependent histamine release", "setting": "rat mast cells", "value": "inhibit IgE-dependent histamine release"}
    ]},
    {"molecule": "CC(C)=CCC[C@@H](C)[C@H]1CC[C@@]2(C(=O)O)C3=C(CC[C@]12C)[C@@]1(C)CC[C@H](O[C@@H]2OC[C@H](O)[C@H](O)[C@H]2O[C@@H]2O[C@H](CO)[C@H](O)[C@H](O)[C@H]2O)C(C)(C)[C@@H]1CC3", "note": "[Eryloside F, eryloside F]", "values": [
      {"measurement": "Fold more potent against SFLLRN- than against U-46619-induced platelet aggregation", "setting": "[1]; SFLLRN 3 μM vs U-46619 3 μM", "value": "approximately 6 fold"},
      {"measurement": "IC50, inhibition of SFLLRN-induced platelet aggregation", "setting": "[1]; SFLLRN 3 μM, human washed platelets", "value": 0.3, "unit": "µg/mL"},
      {"measurement": "Inhibition of thrombin-induced calcium mobilization (thrombin receptor antagonist activity)", "setting": "thrombin receptor", "value": "most potent activity"},
      {"measurement": "Toxicity against HepG2 cells", "setting": "[2]", "value": "low toxicity"},
      {"measurement": "Inhibitory potency against thrombin-induced platelet aggregation relative to SFLLRN-induced, fold lower", "setting": "[3]", "value": "approximately 20 fold"},
      {"measurement": "IC50, inhibition of U-46619-induced platelet aggregation", "setting": "[4]", "value": 1.7, "unit": "µg/mL"}
    ]}
  ]
}
